Test results published in patent US9012166B2, “Method for assaying histone methylation enzyme activity” (Kyushu Institute of Technology, priority 2010, dated 2015).

Biological target: T1, G9a (GST-mG9a) (Mus musculus, UniProt Q9Z148)
T1 sequence (Q9Z148 1-1263): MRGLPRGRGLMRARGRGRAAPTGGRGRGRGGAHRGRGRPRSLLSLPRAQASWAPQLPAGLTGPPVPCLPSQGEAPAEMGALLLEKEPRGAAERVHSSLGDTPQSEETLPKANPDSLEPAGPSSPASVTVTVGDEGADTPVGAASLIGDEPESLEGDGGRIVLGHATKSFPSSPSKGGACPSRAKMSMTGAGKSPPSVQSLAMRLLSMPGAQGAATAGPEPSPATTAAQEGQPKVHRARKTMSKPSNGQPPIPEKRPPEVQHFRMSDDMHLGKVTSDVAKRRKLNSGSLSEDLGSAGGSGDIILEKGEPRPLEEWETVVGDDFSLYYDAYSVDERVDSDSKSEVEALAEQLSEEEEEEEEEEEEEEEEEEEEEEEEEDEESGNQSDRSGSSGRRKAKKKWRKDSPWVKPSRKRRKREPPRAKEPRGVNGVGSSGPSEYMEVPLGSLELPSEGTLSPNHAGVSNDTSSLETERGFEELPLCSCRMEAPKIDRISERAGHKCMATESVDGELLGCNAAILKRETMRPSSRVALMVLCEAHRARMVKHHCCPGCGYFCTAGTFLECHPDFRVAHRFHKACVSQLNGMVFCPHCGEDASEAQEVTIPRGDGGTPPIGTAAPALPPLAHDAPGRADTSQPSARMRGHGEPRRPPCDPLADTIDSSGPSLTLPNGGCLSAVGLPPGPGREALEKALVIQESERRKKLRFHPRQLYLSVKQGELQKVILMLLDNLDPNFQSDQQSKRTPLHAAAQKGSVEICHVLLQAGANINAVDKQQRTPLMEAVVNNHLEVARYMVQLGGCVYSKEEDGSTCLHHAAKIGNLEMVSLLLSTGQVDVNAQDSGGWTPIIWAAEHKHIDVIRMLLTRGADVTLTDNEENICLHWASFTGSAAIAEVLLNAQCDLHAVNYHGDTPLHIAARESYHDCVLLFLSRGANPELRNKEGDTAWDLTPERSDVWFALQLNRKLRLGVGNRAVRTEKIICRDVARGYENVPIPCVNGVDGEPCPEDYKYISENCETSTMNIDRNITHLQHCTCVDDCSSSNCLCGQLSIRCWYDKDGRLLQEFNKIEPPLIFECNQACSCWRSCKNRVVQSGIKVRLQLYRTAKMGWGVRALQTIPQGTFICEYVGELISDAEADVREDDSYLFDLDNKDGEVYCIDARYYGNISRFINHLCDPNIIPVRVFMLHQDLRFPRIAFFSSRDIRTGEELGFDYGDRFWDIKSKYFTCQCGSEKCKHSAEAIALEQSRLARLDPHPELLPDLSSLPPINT
Assay: Assay for measuring histone methyltransferase activity using peptidyl MCA, inhibitor evaluation with G9a
Assay type: biochemical
Conditions: IC50 for G9a, Ac-histone H3 (1-9)-MCA
Method: When G9a was adopted as a histone methyltransferase, the following method was used. 10 μL of 2×HMT buffer (100 mM Tris-HCl (pH 8.5), 20 mM MgCl2, 40 mM KCl, 20 mM 2-mercaptoethanol, 500 mM sucrose), 0.4 μL of a BSA solution (150 μg/mL), 2 μL of GST-mG9a (0, 0.5 μg/μL), 1 μL of gliotoxin (any of various concentrations) and 2.6 μL of distilled water were mixed and then incubated at room temperature for 1 hour. Then, 2 μL of SAM (10 mM) and 2 μL of a peptidyl MCA (Ac-histone H3 (1-9)-MCA) solution (0.6 mM) were added thereto, which was then incubated at 37° C. for 1 hour. Thereafter, 30 μL of a trypsin solution (20 mg/mL) was added thereto, followed by incubation at 37° C. for 15 minutes. Then, the fluorescence intensity of the solution was measured at an excitation wavelength (λex) of 390 nm and a fluorescence wavelength (λem) of 460 nm. The final concentration of GST-mG9a during the measurement of fluorescence intensity was 0.05 μg/μL. The results of the assay for measuring histone methyltransferase activity are shown in the middle panel of FIG. 18.
The rate of the inhibition of methylation by gliotoxin was calculated from the results in the left panel and the middle panel of FIG. 18. Specifically, the value (%) was calculated which was obtained by dividing “a value obtained by subtracting “the fluorescence intensity of AMC when peptidase was added but gliotoxin was not added” from “the fluorescence intensity of AMC when both peptidase and gliotoxin were added”” by “a value obtained by subtracting “the fluorescence intensity of AMC when peptidase was added but gliotoxin was not added” from “the fluorescence intensity of AMC when no peptidase or gliotoxin was added”” and multiplying the resultant value by 100. The rate (%) of the inhibition of methylation by gliotoxin is shown in the right panel of FIG. 18.
Specifically, the assay for measuring histone methyltransferase activity was carried out by the same method as the method using G9a […] in Example 8 except for using S-Adenosyl-L-homocysteine (SAH) in place of gliotoxin. SAH is a by-product of the methylation reaction and is known to inhibit histone methyltransferase in a negative feedback manner. […] The rate (%) of the inhibition of methylation by SAH was calculated from the results in the left panel of FIG. 19. The results are shown in the right panel of FIG. 19.
When G9a was adopted as a histone methyltransferase, the following method was used. […] Then, the fluorescence intensity of the solution was measured at an excitation wavelength (λex) of 330 nm and a fluorescence wavelength (λem) of 380 nm or at an excitation wavelength (λex) of 390 nm and a fluorescence wavelength (λem) of 460 nm. The final concentration of GST-mG9a during the measurement of fluorescence intensity was 0 μg/μL or 0.05 μg/μL.

## CN1C(=O)[C@]23CC4=CC=C[C@H](O)[C@H]4N2C(=O)[C@@]1(CO)SS3 [gliotoxin]
Example 8, AMC fluorescence λex 390 nm/λem 460 nm, FIG. 18
  IC50: 2.8 µM
Example 14, AMC fluorescence λex 390 nm/λem 460 nm, left panel of FIG. 27
  IC50: 1.8 µM
Example 14, peptidyl MCA fluorescence λex 330 nm/λem 380 nm, right panel of FIG. 27
  IC50: 2.8 µM
